The values that follow come from patent publication USRE47689E1, “Compounds for treating spinal muscular atrophy” (PTC Therapeutics, Inc., priority 2011, dated 2019).

Data set [1] deals with SMN2 minigene (full length SMN2 minigene mRNA containing SMN2 exon 7). As to the kind of experiment: SMN2 minigene mRNA splicing RT-qPCR assay in cultured cells. The format is cell-based, human. The conditions noted are these: Homo sapiens, HEK293-H; HEK293H cells stably transfected with SMN2-A minigene; 24 hours; 7-point concentration curve; 1.5-fold relative to vehicle-treated cells; read-out: EC1.5x for production of full length SMN2 mRNA. The essentials: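 Read-out: full-length (exon 7-included) SMN2 minigene mRNA by multiplex RT-qPCR with GAPDH, efficiency-corrected (1+E)^−Ct, GAPDH-normalized and divided by vehicle. Stably transfected HEK293H cells, 24 h compound exposure, duplicates per concentration. Value is EC1.5x, reported as star ranges.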
(Real-time PCR tracks product formation cycle by cycle.)

In data set [2] the test system is Smn protein. As to the kind of experiment: Smn protein assay in cultured cells (SMN HTRF). The conditions noted are these: 48 hours; for maximum fold (Fold) increase of Smn protein: SMA patient fibroblast cells, 7-point concentration data, fold increase relative to vehicle control (SMN HTRF); for EC1.5x (concentration giving 1.5-fold Smn protein increase): SMA Type 1 patient fibroblast cells (GM03813), 7-point concentration curve, SMN HTRF, concentration producing 1.5 times Smn protein vs DMSO vehicle control, read-out: EC1.5x for Smn protein expression. The class given is cell-based, human. The essentials: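 Lysates in RIPA with protease inhibitors are incubated overnight at room temperature with HTRF anti-SMN antibodies. EC1.5x is derived from fold increase in ΔF over vehicle.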

The term melting point denotes the temperature of the solid-liquid transition. `C[C@@H]1CN(c2cc(F)c3cc(-c4cn5cccc(Cl)c5n4)c(=O)oc3c2)C[C@H](C)N1` [Compound 388, 3-(8-chloroimidazo[1,2-a]pyridin-2-yl)-7-[(3R,5S)-3,5-dimethylpiperazin-1-yl]-5-fluoro-2H-chromen-2-one]: the melting point was 290 to 300 °C. Also, in data set [1], the EC (1.5-fold) fell in the range of 0.3 to 1 µM. The “maximum fold (Fold) increase of Smn protein” value (“maximum fold (Fold) increase” for short) in data set [2] was “** (fold increase between >1.2 and ≤1.35)”.

`CN1CCN(c2ccc3cc(-c4nc5ccccc5s4)c(=O)oc3c2)CC1` [Compound 16, 3-(1,3-benzothiazol-2-yl)-7-(4-methylpiperazin-1-yl)-2H-chromen-2-one] came in with a melting point of 259 to 262 °C. Further, the EC (1.5-fold) in data set [1] was 0.3 to 1 µM. Moreover, the “maximum fold (Fold) increase” value in data set [2] was “** (fold increase between >1.2 and ≤1.35)”.

Molecule `Cc1ccnc(Nc2cc3ccc(N4CCNCC4)cc3oc2=O)c1` [Compound 62, 3-[(4-methylpyridin-2-yl)amino]-7-(piperazin-1-yl)-2H-chromen-2-one] displayed a melting point of 182 to 185 °C. The EC (1.5-fold) in data set [1] is 1 to 3 µM. Also, the “maximum fold (Fold) increase” value in data set [2] is on record as “* (maximum fold increase of ≤1.2)”.

As for `C[C@@H]1CN(c2ccc3cc(-c4cc5ccccc5o4)c(=O)oc3c2)C[C@H](C)N1` [Compound 604, 3-(1-benzofuran-2-yl)-7-[(3R,5S)-3,5-dimethylpiperazin-1-yl]-2H-chromen-2-one], the melting point was 191 to 193 °C. The EC (1.5-fold) in data set [1] was in the range of 0.3 to 1 µM. In addition, the “maximum fold (Fold) increase” value in data set [2] is “* (maximum fold increase of ≤1.2)”.

Consider `CN1CCN(c2ccc3cc(-c4cn5cccc(Br)c5n4)c(=O)oc3c2)CC1` [Compound 245, 3-(8-bromoimidazo[1,2-a]pyridin-2-yl)-7-(4-methylpiperazin-1-yl)-2H-chromen-2-one], for which the melting point fell in the range of 217 to 220 °C. For the same molecule, the EC (1.5-fold) in data set [1] was in the range of 0.1 to 0.3 µM. For the same molecule, the “maximum fold (Fold) increase” value in data set [2] was “** (fold increase between >1.2 and ≤1.35)”.

Take `Cc1ccn2cc(-c3cc4ccc(N5CCNC6(CCC6)C5)cc4oc3=O)nc2c1` [Compound 595, 7-(5,8-diazaspiro[3.5]non-8-yl)-3-(7-methylimidazo[1,2-a]pyridin-2-yl)-2H-chromen-2-one]: the melting point lay within 226 to 233 °C. In addition, the EC (1.5-fold) in data set [1] is 0.3 to 1 µM. In addition, the “maximum fold (Fold) increase” value in data set [2] was “** (fold increase between >1.2 and ≤1.35)”.

For `Cc1cn2cc(-c3cc4ccc(CN(C)C)cc4oc3=O)nc2c(C)n1` [Cpd 846, 7-[(dimethylamino)methyl]-3-(6,8-dimethylimidazo[1,2-a]pyrazin-2-yl)-2H-chromen-2-one], the melting point lay in the range of 192 to 196 °C. Further, the EC (1.5-fold) in data set [1] fell in the range of 0.1 to 0.3 µM. Further, in data set [2], the EC1.5x (concentration giving 1.5-fold Smn protein increase) is 300 to 1000 nM and the “maximum fold (Fold) increase” value was “***** (fold increase >1.65)”.

`Cc1cc(F)c2nc(-c3cc4ccc(N5CCN(C)[C@@H](C)C5)cc4oc3=O)cn2c1` [Compound 471, 7-[(3S)-3,4-dimethylpiperazin-1-yl]-3-(8-fluoro-6-methylimidazo[1,2-a]pyridin-2-yl)-2H-chromen-2-one]: the melting point fell in the range of 270 to 277 °C. The EC (1.5-fold) in data set [1] is 0.1 to 0.3 µM. In addition, in data set [2], the EC1.5x (concentration giving 1.5-fold Smn protein increase) was 300 to 1000 nM; the “maximum fold (Fold) increase” value is “**** (fold increase between >1.5 and ≤1.65)”.

`Cc1csc(-c2cc3ccc(N4C[C@@H](C)N[C@@H](C)C4)cc3oc2=O)n1` [Compound 286, 7-[(3R,5S)-3,5-dimethylpiperazin-1-yl]-3-(4-methyl-1,3-thiazol-2-yl)-2H-chromen-2-one] returned a melting point of 178 to 183 °C. Also, in data set [1], the EC (1.5-fold) is 1 to 3 µM. Besides, the “maximum fold (Fold) increase” value in data set [2] is given as “* (maximum fold increase of ≤1.2)”.
